# Source: PubChem BioAssay (NCI)
#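 These data come from cells grown in 96-well plates and exposed to compound for 48 hours at five concentrations. TGI is the concentration that stops growth completely.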 Where a SMILES comes first, the peptide text is derived from it. [ ]: non-standard residue; d: D form. The star is where a group is joined. ξ: configuration not given here. Propanoyl(3-(4-MeO-Ph)) = COc1ccc(CCC(=O)*)cc1; Thr(3ξ) = CC(O)[C@H](N)C(=O)O; dNMeL = CN[C@H](CC(C)C)C(=O)O; Boc = CC(C)(C)OC(=O)*; OBn = c1ccc(CO*)cc1; ξLac = CC(O)C(=O)O
# How the values were obtained:
# Assay in all cases: DTP human tumour cell line panel, 48 h
# [1] = system: BT-549 breast
# [2] = system: T-47D breast
# [3] = system: OVCAR-8 ovarian
# [4] = system: SN12C renal
# [5] = system: UACC-62 melanoma
# [6] = system: MDA-N
# [7] = system: SK-MEL-28 melanoma
# [8] = system: PC-3 prostate
# [9] = system: MDA-MB-435
# [10] = system: A549 NSCLC
# [11] = system: MALME-3M melanoma
# [12] = system: HCT-116 colon
# [13] = system: TK-10 renal
# [14] = system: SK-MEL-5 melanoma
# [15] = system: IGROV1 ovarian
# [16] = system: SNB-19 CNS
# [17] = system: UO-31 renal
smiles,measurement,setting,value
CCOC(=O)C1(C(=O)OCC)CC(=O)[C@@]2(C1)OCC[C@H]1OC(=O)C[C@H]12,TGI,[1],> 100 µM
same,TGI,[2],> 100 µM
same,TGI,[3],> 100 µM
same,TGI,[4],> 100 µM
same,TGI,[5],> 100 µM
same,TGI,[6],> 100 µM
same,TGI,[7],> 100 µM
same,TGI,[8],> 100 µM
same,TGI,[9],> 100 µM
same,TGI,[10],> 100 µM
same,TGI,[11],> 100 µM
same,TGI,[12],> 100 µM
same,TGI,[13],> 100 µM
same,TGI,[14],> 100 µM
same,TGI,[15],> 100 µM
same,TGI,[16],> 100 µM
same,TGI,[17],> 100 µM
O=c1[nH]c(Nc2cccc(Br)c2)nc2nc[nH]c12,TGI,[1],> 100 µM
same,TGI,[2],> 100 µM
same,TGI,[3],> 100 µM
same,TGI,[5],> 100 µM
same,TGI,[6],> 100 µM
same,TGI,[7],> 100 µM
same,TGI,[8],> 100 µM
same,TGI,[9],> 100 µM
same,TGI,[10],> 100 µM
same,TGI,[11],> 100 µM
same,TGI,[12],> 100 µM
same,TGI,[13],> 100 µM
same,TGI,[14],> 100 µM
same,TGI,[15],> 100 µM
same,TGI,[16],> 100 µM
same,TGI,[17],> 100 µM
CC(=N/NC(=S)N1CCCCC1)/C(C)=N\NC(=S)N1CCCCC1,TGI,[1],3.38 µM
same,TGI,[2],3.27 µM
same,TGI,[4],3.2 µM
same,TGI,[6],6.44 µM
same,TGI,[7],3.99 µM
same,TGI,[9],3.79 µM
same,TGI,[10],4.04 µM
same,TGI,[11],3.61 µM
same,TGI,[13],3.24 µM
same,TGI,[14],3.07 µM
same,TGI,[15],3.13 µM
same,TGI,[16],3.54 µM
same,TGI,[17],2.79 µM
CN(C)CCNC1=CC(=O)c2c(O)ccc(O)c2C1=O,TGI,[1],31 µM
same,TGI,[2],25.5 µM
same,TGI,[3],25.9 µM
same,TGI,[4],21.5 µM
same,TGI,[5],5.63 µM
same,TGI,[6],3.55 µM
same,TGI,[7],26.3 µM
same,TGI,[8],21.5 µM
same,TGI,[9],3.33 µM
same,TGI,[10],27.3 µM
same,TGI,[11],2.62 µM
same,TGI,[12],9.05 µM
same,TGI,[13],28 µM
same,TGI,[14],3.28 µM
same,TGI,[15],16.7 µM
same,TGI,[16],31.6 µM
same,TGI,[17],17 µM
Cc1ccc([N+](=O)[O-])cc1S(=O)(=O)Nc1ccc(C2=NNC(c3cccs3)C2)cc1 (stereo unspecified),TGI,[1],83.8 µM
same,TGI,[2],43.4 µM
same,TGI,[3],> 100 µM
same,TGI,[4],90.6 µM
same,TGI,[5],34.1 µM
same,TGI,[6],> 100 µM
same,TGI,[7],> 100 µM
same,TGI,[8],> 100 µM
same,TGI,[9],> 100 µM
same,TGI,[10],> 100 µM
same,TGI,[11],> 100 µM
same,TGI,[12],63.5 µM
same,TGI,[14],46.3 µM
same,TGI,[15],> 100 µM
same,TGI,[16],> 100 µM
same,TGI,[17],> 100 µM
CCOCC(NC(=O)C(CC(C)C)NC(=O)OC(C)(C)C)C(N)=O (stereo not drawn) (Boc-Leu-Ser(Et)-NH2; configuration not given here),TGI,[1],> 100 µM
same,TGI,[2],> 100 µM
same,TGI,[3],> 100 µM
same,TGI,[4],> 100 µM
same,TGI,[5],> 100 µM
same,TGI,[6],> 100 µM
same,TGI,[7],2.84 µM
same,TGI,[8],> 100 µM
same,TGI,[9],> 100 µM
same,TGI,[10],> 100 µM
same,TGI,[11],> 100 µM
same,TGI,[12],> 100 µM
same,TGI,[13],> 100 µM
same,TGI,[14],> 100 µM
same,TGI,[15],> 100 µM
same,TGI,[16],> 100 µM
same,TGI,[17],> 100 µM
CSc1ccc(/C=C2\N=C(c3ccccc3)N(c3nc4c(Cl)cc(Cl)cc4s3)C2=O)cc1,TGI,[1],63.5 µM
same,TGI,[2],98.4 µM
same,TGI,[3],> 100 µM
same,TGI,[4],56.3 µM
same,TGI,[5],73.1 µM
same,TGI,[6],36.1 µM
same,TGI,[7],> 100 µM
same,TGI,[8],43.3 µM
same,TGI,[9],43.2 µM
same,TGI,[10],53.4 µM
same,TGI,[12],41.5 µM
same,TGI,[13],> 100 µM
same,TGI,[14],34.9 µM
same,TGI,[15],> 100 µM
same,TGI,[16],> 100 µM
same,TGI,[17],47.9 µM
COc1ccc(CCC(=O)OC(C)[C@H](NC(=O)[C@@H](CC(C)C)N(C)C(=O)[C@@H]2CCCN2C(=O)C(C)O)C(=O)OCc2ccccc2)cc1 (stereo partly specified) (H-[ξLac]P[dNMeL][Thr(3ξ)](Propanoyl(3-(4-MeO-Ph)))-OBn),TGI,[1],> 100 µM
same,TGI,[2],74.5 µM
same,TGI,[3],> 100 µM
same,TGI,[4],> 100 µM
same,TGI,[5],37.9 µM
same,TGI,[6],> 100 µM
same,TGI,[7],32.9 µM
same,TGI,[8],> 100 µM
same,TGI,[9],44.7 µM
same,TGI,[10],> 100 µM
same,TGI,[11],45.4 µM
same,TGI,[12],> 100 µM
same,TGI,[13],> 100 µM
same,TGI,[14],28.8 µM
same,TGI,[15],91.9 µM
same,TGI,[16],> 100 µM
same,TGI,[17],> 100 µM
Cc1ccc(/C=N/Nc2nncc3ccccc23)s1,TGI,[1],> 100 µM
same,TGI,[2],> 100 µM
same,TGI,[3],> 100 µM
same,TGI,[4],> 100 µM
same,TGI,[5],> 100 µM
same,TGI,[6],> 100 µM
same,TGI,[7],> 100 µM
same,TGI,[8],> 100 µM
same,TGI,[9],> 100 µM
same,TGI,[10],> 100 µM
same,TGI,[11],> 100 µM
same,TGI,[12],> 100 µM
same,TGI,[13],> 100 µM
same,TGI,[14],> 100 µM
same,TGI,[15],> 100 µM
same,TGI,[16],> 100 µM
same,TGI,[17],> 100 µM
CC(=O)NNC(=S)/N=C/c1c(O)cc(C)oc1=O,TGI,[1],> 100 µM
same,TGI,[2],> 100 µM
same,TGI,[3],> 100 µM
same,TGI,[4],> 100 µM
same,TGI,[6],> 100 µM
same,TGI,[7],> 100 µM
same,TGI,[8],> 100 µM
same,TGI,[9],> 100 µM
same,TGI,[10],> 100 µM
same,TGI,[12],> 100 µM
same,TGI,[13],> 100 µM
same,TGI,[14],> 100 µM
same,TGI,[15],> 100 µM
same,TGI,[16],> 100 µM
same,TGI,[17],> 100 µM
COc1ccccc1N=N/C(=N/NC(=O)c1ccc(C)cc1)c1ccc(N(CCC#N)CCC#N)cc1OC,TGI,[1],97.4 µM
same,TGI,[2],96 µM
same,TGI,[3],> 100 µM
same,TGI,[4],72.4 µM
same,TGI,[5],> 100 µM
same,TGI,[6],53.5 µM
same,TGI,[7],> 100 µM
same,TGI,[8],71.2 µM
same,TGI,[9],> 100 µM
same,TGI,[10],> 100 µM
same,TGI,[11],81.9 µM
same,TGI,[12],59.9 µM
same,TGI,[13],> 100 µM
same,TGI,[14],> 100 µM
same,TGI,[15],> 100 µM
same,TGI,[16],> 100 µM
same,TGI,[17],> 100 µM
CC(=O)c1c(-c2ccccc2)c(-c2ccc(OCCN(C)C)cc2)n2ccccc12,TGI,[1],30.3 µM
same,TGI,[2],37.8 µM
same,TGI,[3],31 µM
same,TGI,[4],29.4 µM
same,TGI,[5],30.7 µM
same,TGI,[6],29.2 µM
same,TGI,[7],28.6 µM
same,TGI,[8],35.5 µM
same,TGI,[9],35.3 µM
same,TGI,[10],50.7 µM
same,TGI,[11],24.4 µM
same,TGI,[12],26 µM
same,TGI,[13],32.1 µM
same,TGI,[14],24.1 µM
same,TGI,[15],33.3 µM
same,TGI,[16],40.4 µM
same,TGI,[17],32.1 µM
O=C1CC(c2ccc[nH]2)=NN1c1ccccc1,TGI,[1],> 100 µM
same,TGI,[2],> 100 µM
same,TGI,[3],> 100 µM
same,TGI,[4],> 100 µM
same,TGI,[5],> 100 µM
same,TGI,[6],> 100 µM
same,TGI,[7],> 100 µM
same,TGI,[8],> 100 µM
same,TGI,[9],> 100 µM
same,TGI,[10],> 100 µM
same,TGI,[11],> 100 µM
same,TGI,[12],> 100 µM
same,TGI,[13],> 100 µM
same,TGI,[14],> 100 µM
same,TGI,[16],> 100 µM
same,TGI,[17],> 100 µM
